Measurements: patent publication US9067928B2 (Genentech, Inc., priority 2008, dated 2015)

Tests used:
[1] = tested on: Mcl-1-/- mouse embryonic fibroblasts (MEF); experiment: Cell viability assay for Mcl-1-/- mouse embryonic fibroblasts (CellTiter-Glo); format: cell-based; details: Fibroblast, 1% Fetal Bovine Serum, read-out: MEF Mcl-1-/- KO cell viability results (EC50)
Excerpt: a. Cell Viability Assay for Mcl-1^−/− Mouse Embryonic Fibroblasts (MEF):
Neutralization of both […] and Mcl-1 anti-apoptotic proteins in normal cells is required before a cell undergoes apoptosis via the downstream Bax/Bak pathway See, Chen. L. et al. Mol. Cell (2005) 17, 393-403; Willis, S. N. et al. Genes Dev. (2005) 19, 1294-1305. A compound that only targets Bcl-xL should not affect normal cells, but could kill certain cancer cells if they rely more on Bcl-xL and less on other anti-apoptotic proteins, e.g. Mcl-1, for survival. To mirror this, compounds of the invention were tested for its effect on survival of wild type (wt) mouse embryo fibroblasts (MEFs), Bax/Bak double knockout (BB DKO) MEFs, MEFs that expressed Noxa, and MEFs that expressed Bad. Noxa specifically neutralizes Mcl-1. […] MEFs that express Noxa mirror cancer cell types that are reliant on Bcl-xL for survival and should be much more sensitive to killing by a Bcl-xL targeting compound than MEFs where both Bcl-xL and Mcl-1 are protective.
In this assay, Mcl-1^(−/−) cells were used to confirm that cell apoptosis in the presence of BH3 mimetic small molecules was due to predominantly Bcl-xL inactivation. This inactivation leaves Bax/Bak unconstrained and results in apoptosis. The […]-GLO Luminescent Cell Viability Assay is a homogeneous method of determining the number of viable cells in culture based on quantitation of the ATP present. The amount of ATP correlates with the presence of metabolically active cells such that following cell lysis the amount of ATP present is proportional to the amount of luminescence measured.
Mcl-1^(−/−) mouse embryonic fibroblasts (MEFs) are an adherent cell line prepared in house. MEFs were grown in Iwaki 75 cm^2 tissue culture flasks (cat #3123-075) with FMA media which consists of: • 89% DME Kelso • 10% heat-inactivated foetal calf serum (FCS) (Hyclone cat #SH30396.03) • 1% 10 mM asparagine (Fluka cat #11149) • 275 μl of a 1:2000 dilution of 2-mercaptoethanol is added to the final 500 ml volume of FMA (Sigma cat #M7522; diluted in MT-PBS)
FMA was stored at 4° C. and used at 37° C. MEFs were cultured in FMA media and harvested in MT-PBS and trypsin. For MEF cell viability assays, cells were seeded separately in plates with 10% FCS-FMA and 1% FCS-FMA. […]
Automated Systems that can be used in this assay include: 1) Multidrop—The MULTIDROP 384 (ThermoLabsystems) dispenser was used to dispense cells aseptically into the assay plates: 2) MiniTrak—The […] system from Perkin Elmer was used for titration of the compound plates; 3) Zymark—The ZYMARK SCICLONE ALH3000 System with 100 nL pintool head was used for compound addition to the cells; 4) EnVision—The ENVISION plate reader was used to measure the viability via the detection of the luminescence. […]

Bcl-xL = target: T1, Bcl-xL (Homo sapiens, UniProt Q07817); experiment: Alpha Screen Bcl-xL binding assay, competition with Bim26-mer; details: values listed in the order of Table 1; read-out: Alphascreen results (IC50)
T1 construct: made in house
T1 sequence (Q07817 whole entry, species assumed): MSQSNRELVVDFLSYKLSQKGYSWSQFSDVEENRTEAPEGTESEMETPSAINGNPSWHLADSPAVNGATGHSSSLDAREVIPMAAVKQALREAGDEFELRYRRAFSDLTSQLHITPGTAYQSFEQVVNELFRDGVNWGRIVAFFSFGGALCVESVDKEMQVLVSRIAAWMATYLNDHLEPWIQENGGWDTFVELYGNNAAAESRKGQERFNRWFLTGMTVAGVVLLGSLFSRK
Procedure: The measurement of competition of compounds of the invention with Bim26-mer for a Bcl-2 family protein binding site using an Alpha Screen Bcl-xL Binding Assay:
The BH3 proteins ALPHASCREEN™ assay was used to identify active small molecules Bcl-2 family protein screen. e.g., Bcl-xL, hmMcl-1 screen. To determine an accurate estimation of the IC50, the compounds were routinely tested at starting concentrations, 100 μM and/or 1 μM and serially titrated 3 fold over 11 dilutions.
The beads come in close proximity when the protein and the peptides interact. Donor beads contain a photosensitiser that converts oxygen to an excited form of O2 at an excitation of 680 nm. Energy is transformed from the singlet oxygen and reacts with chemiluminescers on the acceptor bead, resulting in light emission at 520-620 nm. […] With this information, the IC50 of each compound was calculated
GST-Bcl-xL, GST-hmMcl-1 and biotinylated GST proteins were prepared in-house and were stored as stock solutions at −80° C. The biotinylated-Bak, and biotinylated-Bim peptides were purchased from Auspep and were stored as 500 μM stock solutions in 100% DMSO at −80° C. The ALPHASCREEN™ GST (Glutathione-S-Transferase) Detection Kit was obtained from Perkin Elmer Lifesciences (Cat #6760603R). The Proxiplates, white 384 well flat-Bottom plates were purchased from Interpath Services, Melbourne (Cat #784075). The seals to cover the plates were purchased from Proscience. Melbourne (Cat#784075). DMSO was purchased from AnalaR. The 384 deep well plates and the Polypropylene 50 μL, V bottom polypropylene compound plates were purchased from Matrical.
Compounds of the invention were prepared as 10 mM stocks with 100% DMSO on the day prior to performing the assay. […] To achieve a final compound concentration of 1 μM, in a separate matrical plate, 28 μL of 100% DMSO and 2 μL of 10 mM compound was added to a well, mixed well. 2 μL of this solution was taken and added to 38 μL of 100% DMSO. 20 μL of this solution was added to the test matrical plate. Several control compounds were included in the test plates. For the control wells 15 μL 100% DMSO only was added to the appropriate wells of each plate. The compound plates were then serially diluted 2 fold using the MiniTrak. Once titrations were complete, the compound plate was immediately covered with a foil seal to prevent evaporation.
The assay and bead buffers were prepared fresh. Each titrated compound plate was assayed in duplicate. The following volumes were sufficient to run 12 Proxiplates (4 assay plates run in duplicate in each of Bclxl, hmMcl and counter assays)
Protein and Peptide Preparation; and Assay Performance • 1. The assay and bead buffers were used to prepare the acceptor and donor solutions. ALPHASCREEN™ beads are light sensitive and therefore prepared in a darkened room. 2.5 μL of beads were added per 1 mL of buffer. • 2. The volume of protein or peptide to add was calculated using the following formula:
[formula] • C1=Final Concentration of protein/peptide • C2=Stock Concentration of protein/peptide • V1=Total Volume of Acceptor/Donor Solution • V2=Volume of stock protein/Peptide to add to Acceptor/Donor solution • 3. The assay components were prepared as separate Acceptor and Donor Solutions. The Acceptor Solution contained Acceptor heads and target protein, while the Donor Solution contained Donor beads and biotinylated peptide.
• 4. After the solutions were prepared, they were left to incubate for 30 minutes at room temperature to allow the beads to bind to the protein and the peptide. • 5. 50 μL of Bcl-xL solution, 50 μL of hmMcl-1 solution and 50 µL of biotinylated-GST were added into separate deep wells on an assay plate. A control […]. Assay/Bead buffer was added separate well plates (no protein). • 6.

IC50 (Bcl-xL) [µM]	Structure (SMILES)	EC50 [1] [µM]
0.006	CC(C)Oc1ccc(-c2sc(-c3ccc4c(c3)N(C(=O)Nc3nc5ccccc5s3)CCC4)nc2C(=O)O)cc1 [Example 79, 2-(1-(benzo[d]thiazol-2-ylcarbamoyl)-1,2,3,4-tetrahydroquinolin-7-yl)-5-(4-isopropoxyphenyl)thiazole-4-carboxylic acid]	0.21
0.01	O=C(O)c1nc(-c2ccc3c(c2)N(C(=O)Nc2nc4ccccc4s2)CCC3)ccc1OCCCc1ccccc1 [Example 90, 6-(1-(benzo[d]thiazol-2-ylcarbamoyl)-1,2,3,4-tetrahydroquinolin-7-yl)-3-(3-phenylpropoxy)picolinic acid]	0.59
